Results published in patent publication US7709451B2, “Method and composition for treating immune complex associated disorders” (Trustees of Boston University, priority 1997, dated 2010).
“Also recorded” adds a separate entry of the source.

Legend:
[1] = tested on: AM14 RF+ B cells; assay: RF+ B cell proliferation (3[H]-thymidine incorporation); assay type: cell-based, mouse; conditions: for Inhibition of RF+ B cell response to mAb PL2-3 / chromatin-containing IC: FIGS. 5A-5C
Protocol: Cell culture and reagents. Spleen cell preparations were T-depleted and cultured with the appropriate ligands for 40-48 hrs. In some experiments, B cells were preincubated with CD40L as described (Rifkin, et al., J. Immunol. 165, 1626-1633 (2000)). Proliferation was assessed by ^3[H]-thymidine incorporation during the final 16 hours of culture. Data are presented as the mean percentage of the anti-IgM response from triplicate cultures. The percentage of the anti-IgM response was calculated according to the formula: [(cpm experimental condition−cpm CD40L alone)/(cpm anti-IgM−cpm CD40L alone)×100].
In some experiments, DNase I (type IV) (Sigma, St. Louis, Mo.), chloroquine (Sigma), concanamycin B, bafilomycin A (Sigma), or 12 μg/ml of the inhibitory CpG S-ODN 2008 (Lenart, et al., Antisense Nucleic Acid Drug Dev. 4, 247-256 (2001)) (Oligo's Etc.) were added to the cultures 15-30 min-2 hr before the addition of the ligands.

[2] = in vivo; cited from earlier work
[3] = tested on: dendritic cells from C57BL/6 mice lacking the Fc receptor γ chain; assay: Dendritic cell TNF-α production, Fc receptor γ chain deficient mice; assay type: cell-based, mouse; conditions: Table 2, Fc receptor γ chain deficient dendritic cells; 48 hours
Protocol: (§1) Dendritic cells were generated from the bone marrow of C57BL/6 wildtype mice and from C57BL/6 mice lacking the Fc receptor γ chain in by in vitro culture of the bone marrow cells with GM-CSF and IL-4 for 6 days. On day 6, the CD11c positive dendritic cells were isolated using magnetic beads. The stimulatory ODN 1826 (3 μg/ml), that specifically activates through TLR9, lipopolysaccharide (LPS, 10 μg/ml), the anti-chromatin antibodies PL2-3 (50 μg/ml; IgG2a) and PL2-8 (50 μg/ml; IgG2b), two different antibody/protein ratios of α-TNP/TNP-BSA immune complexes (50 μg/ml), or the culture medium only (media), was then added to the dendritic cell cultures. After 48 hours, levels of TNF-α in the culture supernatants was measured by ELISA (results shown as pg/ml; lower level of sensitivity of assay is 50 pg/ml). A representative experiment of 2 similar experiments is shown.

[4] = tested on: CD11c positive dendritic cells from bone marrow of C57BL/6 mice; assay: Dendritic cell activation (TNF-α and IL-12 ELISA, CD86 flow cytometry); assay type: cell-based, mouse; conditions: for TNF-α in culture supernatants (ELISA): 48 hours
Protocol: Dendritic cells were generated from the bone marrow of C57BL/6 mice by in vitro culture with GM-CSF and IL-4 for 6 days. On day 6, the CD11c positive dendritic cells were isolated using magnetic beads (Miltenyi Biotec) and either pre-incubated, or not pre-incubated, for 30 minutes with ODN 2088, an inhibitory oligodeoxynucleotide that specifically blocks signaling through TLR9. The stimulatory ODN 1826 (CpG, 3 μg/ml), that specifically activates through TLR9, or lipopolysaccharide (LPS, 10 μg/ml), that activates through TLR4, or culture medium only (media), was then added to the cultures. After 48 hours, levels of TNF-α (8A) and IL-12 (8B) in the culture supernatants were measured by ELISA (results shown as OD units determined by absorption at 405 nm). After removal of the supernatants, cells were collected and analyzed by flow cytometry for expression of the co-stimulatory molecule CD86 (8c). Unstimulated refers to the level of expression of CD86 in the presence of media alone, whereas stimulated refers to the level of expression of CD86 in the presence of the stimulus (ODN 1826 or LPS).
Dendritic cells were generated from the bone marrow of C57BL/6 mice by in vitro culture with GM-CSF and IL-4 for 6 days. On day 6, the CD11c positive dendritic cells were isolated using magnetic beads (Miltenyi Biotec). The dendritic cells were then either pre-incubated, or not pre-incubated, for 30 minutes with ODN 2088 at 12 μg/ml. The stimulatory ODN 1826 (3 μg/ml), that specifically activates through TLR9, lipopolysaccharide (LPS, 10 μg/ml), that activates through TLR4, the anti-chromatin antibody PL2-3 (50 μg/ml), three different antibody/protein ratios of α-TNP/TNP-BSA immune complexes (50 μg/ml), or the culture medium only (media), was then added to the cultures. After 48 hours, levels of TNF-α in the culture supernatants was measured by ELISA (results shown as pg/ml; lower level of sensitivity of assay is 50 pg/ml). A representative experiment of 3 similar experiments is shown.
as §1

[5] = tested on: RF+ MyD88−/− B cells; assay: Proliferation of RF+ MyD88-/- B cells; assay type: cell-based, mouse; conditions: FIG. 4C
Protocol: To investigate the potential role of TLRs in mediating RF+ B cell responses to autoantibody/autoantigen IC, we crossed the AM14 transgenes onto a MyD88−/− background (Adachi, et al., Immunity 9, 143-150 (1998)). B cells from RF− MyD88+/+ (wildtype), RF+ MyD88+/+, and RF+ MyD88−/− offspring, identified by a combination of PCR and FACS analysis (FIGS. 4A-4B), were assessed for their ability to respond to anti-IgM, CpG ODN, and LPS, as well as to a panel of anti-nucleosome mAbs and autoimmune sera.
Mice. […] Complement receptor genotype was determined by flow cytometry using the FITC-conjugated 7G6 antibody (Pharmingen, San Diego, Calif.). MyD88 genotype was determined by PCR using the primers: MyD88F (5′-TGGCATGCCTCCATCATAGTTAACC-3′) [SEQ ID NO: 1], MyD88R (5′-GTCAGAAACAACCACCACCATGC-3′) [SEQ ID NO: 2], and neoR (5′-ATCGCCTTCTATCGCCTTCTTGACG-3′) [SEQ ID NO: 3] […]
Cell culture and reagents. […] Proliferation was assessed by ^3[H]-thymidine incorporation during the final 16 hours of culture. […] The percentage of the anti-IgM response was calculated according to the formula: [(cpm experimental condition−cpm CD40L alone)/(cpm anti-IgM−cpm CD40L alone)×100].

[6] = Table 1, column 2088: pre-incubated 30 minutes with ODN 2088 at 12 μg/ml
[7] = Table 1, column None: no ODN 2088 pre-incubation, lower level of sensitivity 50 pg/ml
[8] = Table 2, wildtype C57BL/6 dendritic cells

Q: Which “Inhibition of RF+ B cell response to mAb PL2-3 / chromatin-containing IC” value [1] does the source give for `Cl.N` [ammonium chloride] here?
A: The value was “inhibited”.

Q: With `CO/C1=C\C(C)=C\[C@@H](C)[C@@H](O)[C@@H](C)C/C(C)=C/C=C/[C@H](OC)[C@@H]([C@@H](C)[C@@H](O)[C@H](C)[C@@]2(O)C[C@@H](O)[C@H](C)[C@@H](C(C)C)O2)OC1=O` [bafilomycin A] as the compound, how does the “Inhibition of RF+ B cell response to mAb PL2-3 / chromatin-containing IC” value [1] read?
A: The value was “inhibited”.

Q: Which “Treatment of autoimmune diseases including rheumatoid arthritis and SLE” value [2] does the source give for `CCN(CC)CCCC(C)Nc1ccnc2cc(Cl)ccc12` (stereo not drawn) [chloroquine] here?
A: Its value is “effective treatment”.

Q: What about the “Inhibition of RF+ B cell response to mAb PL2-3 / chromatin-containing IC” value [1] of the same compound?
A: Its value is “completely blocked; also recorded: inhibited”.

Q: And the “Inhibition of proliferative response to stimulatory CpG S-ODN 1826” value ([1]; TLR9 ligand)?
A: Its value is “inhibited”.

Q: Which “Inhibition of RF+ B cell response to mAb PL2-3 / chromatin-containing IC” value [1] does the source give for `C/C=C/[C@H]1O[C@@](O)([C@@H](C)[C@H](O)[C@H](C)[C@H]2OC(=O)/C(OC)=C/C(C)=C/[C@@H](C)[C@@H](O)[C@@H](CC)[C@@H](O)[C@H](C)C/C(C)=C/C=C/[C@@H]2OC)C[C@@H](O[C@H]2C[C@@H](O)[C@H](OC(N)=O)[C@@H](C)O2)[C@@H]1C` [concanamycin A] here?
A: Its value is “completely blocked”.

Q: For `C/C=C/[C@H]1O[C@@](O)([C@@H](C)[C@H](O)[C@H](C)[C@H]2OC(=O)/C(OC)=C/C(C)=C/[C@@H](C)[C@@H](O)[C@@H](C)[C@@H](O)[C@H](C)C/C(C)=C/C=C/[C@@H]2OC)C[C@@H](O[C@H]2C[C@@H](O)[C@H](OC(N)=O)[C@@H](C)O2)[C@@H]1C` [concanamycin B], which “Inhibition of RF+ B cell response to mAb PL2-3 / chromatin-containing IC” value [1] is on record?
A: The value was “inhibited”.

Q: Which “Effect of DNase on RF+ B cell proliferative response to anti-nucleosome mAb PL2-3 or autoimmune serum” value ([1]; DNase added to assay medium (FIG. 1)) does the source give for DNase here?
A: The value was “dramatically reduced”.

Q: And the “Effect of DNase on responses to F(ab')2 anti-IgM and LPS” value ([1]; FIG. 1, nonspecific toxicity control)?
A: The value was “unaffected”.

Q: For ODN 1826, which “TNF-α in culture supernatants (ELISA)” value [3] is on record?
A: The value was 2373 pg/mL.

Q: And the “Cytokine production by dendritic cells” value ([4]; 3 μg/ml, 48 hours (FIGS. 8A, 8B))?
A: The value was “induces TNF-α and IL-12 production”.

Q: And the “Co-stimulatory molecule (CD86) expression on dendritic cells” value ([4]; FIG. 8C)?
A: The value was “induces upregulation of co-stimulatory molecules”.

Q: What about the “TNF-α in culture supernatants (ELISA)” value [4, 6] of the same compound?
A: The value was less than 50 pg/mL.

Q: And the “TNF-α in culture supernatants (ELISA)” value [4, 7]?
A: The value was 2347 pg/mL.

Q: And the “TNF-α in culture supernatants (ELISA)” value [4, 8]?
A: Its value is 7899 pg/mL.

Q: And the “Proliferative response of B cells from RF+ MyD88-deficient mice” value [5]?
A: The value was “unable to respond”.

Q: With lipopolysaccharide [LPS] as the compound, how does the “TNF-α in culture supernatants (ELISA)” value [3] read?
A: The value was 3411 pg/mL.

Q: And the “TNF-α in culture supernatants (ELISA)” value [4, 6]?
A: Its value is 2393 pg/mL.

Q: What about the “TNF-α in culture supernatants (ELISA)” value [4, 7] of the same compound?
A: The value was 2514 pg/mL.

Q: And the “TNF-α in culture supernatants (ELISA)” value [4, 8]?
A: The value was 7056 pg/mL.

Q: What about the “Proliferative response of B cells from RF+ MyD88-deficient mice” value [5] of the same compound?
A: Its value is “responded only weakly”.
